Results: article PMC3490489 (Clinical cancer research : an official journal of the …, 2012)
Read-outs that look alike come from different tables or passages of the source. Values belong to the molecule of their own block, whether it stands above or below them.

Legend:
[1] = cited from earlier work
UGT1A9 [2] = target: T1, UGT1A9 (Homo sapiens, UniProt O60656); test: Inhibition of UGT1A9-mediated sorafenib glucuronidation by azole antifungals; assay type: biochemical
T1 sequence (O60656 26-530): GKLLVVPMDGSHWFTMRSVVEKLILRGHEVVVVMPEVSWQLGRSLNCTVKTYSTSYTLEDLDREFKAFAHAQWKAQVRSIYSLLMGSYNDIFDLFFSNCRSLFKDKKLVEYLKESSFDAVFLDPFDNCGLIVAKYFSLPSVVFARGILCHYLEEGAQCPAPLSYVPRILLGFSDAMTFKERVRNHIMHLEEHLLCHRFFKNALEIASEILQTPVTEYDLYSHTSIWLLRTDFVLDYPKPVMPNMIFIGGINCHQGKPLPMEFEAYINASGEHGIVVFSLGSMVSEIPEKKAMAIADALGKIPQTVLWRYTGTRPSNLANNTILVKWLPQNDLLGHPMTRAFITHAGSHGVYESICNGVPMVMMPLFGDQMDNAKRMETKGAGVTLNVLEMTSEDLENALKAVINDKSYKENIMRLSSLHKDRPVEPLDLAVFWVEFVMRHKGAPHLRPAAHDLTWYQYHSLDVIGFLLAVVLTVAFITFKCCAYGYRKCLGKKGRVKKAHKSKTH

[3] = assay type: in vivo, human
[4] = test system: human liver microsomes (HLM); test: Sorafenib N-oxide formation in microsomes from human liver samples; assay type: in vitro ADME; details: 10 to 15 year age group, sorafenib 10 µM, 60 min
AML cell lines = details: cited from earlier work
UGT1A9 [5] = target: T1, UGT1A9; details: panel of purified human UGT enzymes
not read = substrate: CNC(=O)c1cc(Oc2ccc(NC(=O)Nc3ccc(Cl)c(C(F)(F)F)c3)cc2)ccn1; test: not read; details: other: purified human UGT1A9

Molecule: CCNCCNC(=O)c1c(C)[nH]c(/C=C2\C(=O)Nc3ccc(F)cc32)c1C [N-desethyl-sunitinib]
Share of total pharmacologic activity accounted for by the active metabolite ([1]; cancer patients given sunitinib): 30–50%

Ki (UGT1A9 [2]): 2.2 µM
Molecule: CC(=O)N1CCN(c2ccc(OCC3COC(Cn4ccnc4)(c4ccc(Cl)cc4Cl)O3)cc2)CC1 (stereo not drawn) [ketoconazole, reference compound]
Effect of ketoconazole on sorafenib plasma clearance ([1]; healthy subjects): no effect on sorafenib plasma clearance

Molecule: CC[C@@H]([C@H](C)O)n1ncn(-c2ccc(N3CCN(c4ccc(OC[C@@H]5CO[C@@](Cn6cncn6)(c6ccc(F)cc6F)C5)cc4)CC3)cc2)c1=O [posaconazole, reference compound]
Effect on sorafenib N-oxide production in vivo (children given sorafenib concurrent with the azole): reduced N-oxide production to negligible levels
Inhibition of sorafenib glucuronidation in vitro (UGT1A9 [2]): weak inhibitors of sorafenib glucuronidation

Molecule: CNC(=O)c1cc(Oc2ccc(NC(=O)Nc3ccc(Cl)c(C(F)(F)F)c3)cc2)cc[n+]1[O-] [sorafenib N-oxide]
N-oxide metabolite ratio (first patient, day 383, concurrent oral voriconazole 150 mg twice daily): 0.05
N-oxide metabolite ratio (second patient, day 575, concurrent oral voriconazole 150 mg twice daily): 0.05
N-oxide metabolite ratio (second patient, day 607, concurrent oral voriconazole 150 mg twice daily): 0.09
Mean sorafenib N-oxide metabolite ratio (metabolite Css,ave / sorafenib Css,ave) ([3]; all patients): ~ 0.30
CV% of sorafenib N-oxide metabolite ratio ([3]; boys greater than 10 years): 11%
CV% of sorafenib N-oxide metabolite ratio ([3]; boys ≤ 10 years): 39%
Conversion to sorafenib N-oxide ([3]; boys ≤ 10 years): 40%
Sorafenib N-oxide metabolite ratio ([3]; boys ≤ 10 years): 0.40±0.15
Mean conversion to sorafenib N-oxide ([3]; children 1 to 19 years): 27%
N-oxide metabolite ratio, boys versus girls ([3]; children ≤ 10 years): approximately 2 fold
Circulating concentrations of sorafenib N-oxide, mean ([3]; children, sorafenib 200 mg/m^2): 2 to 3 µM
Sorafenib N-oxide metabolite ratio ([3]; females, all ages): 0.22±0.10
CV% of sorafenib N-oxide metabolite ratio ([3]; girls greater than 10 years): 20%
CV% of sorafenib N-oxide metabolite ratio ([3]; girls ≤ 10 years): 59%
Sorafenib N-oxide metabolite ratio ([3]; girls ≤ 10 years): 0.22±0.12
Sorafenib N-oxide metabolite ratio ([3]; males older than 10 years): 0.18±0.021
Sorafenib N-oxide metabolite ratio ([3]; males, all ages): 0.26±0.15
Rate of conversion of sorafenib to sorafenib N-oxide ([1]; adults with AML): < 10%
Sorafenib N-oxide as share of circulating sorafenib concentrations ([1]; healthy subjects and cancer patients): approximately 10%
Rate of conversion of sorafenib to sorafenib N-oxide ([1]; twelve children with relapsed/refractory AML): 33%
Sorafenib N-oxide formation velocity, median ([4]; females): −1.5 log[µM/min/mg HLM]
Sorafenib N-oxide formation velocity, median ([4]; males): −1.1 log[µM/min/mg HLM]
Cytotoxic activity (AML cell lines): exhibited cytotoxic activity

CV% of steady-state sorafenib CL/F ([3]; all 30 patients): 58%
Steady-state sorafenib apparent oral clearance (CL/F), mean±standard deviation ([3]; all 30 patients): 64±37 mL/min/m^2
Molecule: CNC(=O)c1cc(Oc2ccc(NC(=O)Nc3ccc(Cl)c(C(F)(F)F)c3)cc2)ccn1 [sorafenib, reference compound]
Enzyme responsible for sorafenib glucuronidation (UGT1A9 [5]): UGT1A9 is primarily responsible for sorafenib glucuronidation

Molecule: C[C@@H](c1ncncc1F)[C@](O)(Cn1cncn1)c1ccc(F)cc1F [voriconazole]
Inhibition of sorafenib glucuronidation in vitro (UGT1A9 [2]): weak inhibitors of sorafenib glucuronidation

B1: UGT1A9 (Homo sapiens) (protein)
chain: GKLLVVPMDGSHWFTMRSVVEKLILRGHEVVVVMPEVSWQLGRSLNCTVKTYSTSYTLEDLDREFKAFAHAQWKAQVRSIYSLLMGSYNDIFDLFFSNCRSLFKDKKLVEYLKESSFDAVFLDPFDNCGLIVAKYFSLPSVVFARGILCHYLEEGAQCPAPLSYVPRILLGFSDAMTFKERVRNHIMHLEEHLLCHRFFKNALEIASEILQTPVTEYDLYSHTSIWLLRTDFVLDYPKPVMPNMIFIGGINCHQGKPLPMEFEAYINASGEHGIVVFSLGSMVSEIPEKKAMAIADALGKIPQTVLWRYTGTRPSNLANNTILVKWLPQNDLLGHPMTRAFITHAGSHGVYESICNGVPMVMMPLFGDQMDNAKRMETKGAGVTLNVLEMTSEDLENALKAVINDKSYKENIMRLSSLHKDRPVEPLDLAVFWVEFVMRHKGAPHLRPAAHDLTWYQYHSLDVIGFLLAVVLTVAFITFKCCAYGYRKCLGKKGRVKKAHKSKTH
Km (not read): 3.6 ± 0.22 µM
